According to patent publication US7385026B1, “Modified ghrelin polypeptides” (priority 1999, dated 2008):
Square brackets hold non-standard residues; d marks the D form. Peptide text beside a SMILES is read from it. * marks the point of attachment. Octanoyl = CCCCCCCC(=O)*; Aib = CC(C)(N)C(=O)O; Octyl = CCCCCCCC*

Each molecule was assayed against T1, rat GHS-receptor (GHR-R) (Rattus norvegicus, UniProt O08725) (assay: Ca-releasing activity (increase in intracellular calcium) in CHO-GHSR62 cells, FLIPR). Details: not given.
T1 construct: A full-length cDNA for rat GHR-R was obtained by RT-PCR; expressed in transfected cells
Format: cell-based
Summary of the method: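 CHO cells stably expressing full-length rat GHS-R (CHO-GHSR62) were cultured 12–15 h, loaded with 4 μM Fluo4 for 1 h and washed with Hank's BSS containing 20 mM Hepes and 2.5 mM probenecid. Ca-releasing activity of ghrelin peptides, fragments or derivatives was read by FLIPR as the fluorescence change after sample addition.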

T1 sequence (O08725 whole entry): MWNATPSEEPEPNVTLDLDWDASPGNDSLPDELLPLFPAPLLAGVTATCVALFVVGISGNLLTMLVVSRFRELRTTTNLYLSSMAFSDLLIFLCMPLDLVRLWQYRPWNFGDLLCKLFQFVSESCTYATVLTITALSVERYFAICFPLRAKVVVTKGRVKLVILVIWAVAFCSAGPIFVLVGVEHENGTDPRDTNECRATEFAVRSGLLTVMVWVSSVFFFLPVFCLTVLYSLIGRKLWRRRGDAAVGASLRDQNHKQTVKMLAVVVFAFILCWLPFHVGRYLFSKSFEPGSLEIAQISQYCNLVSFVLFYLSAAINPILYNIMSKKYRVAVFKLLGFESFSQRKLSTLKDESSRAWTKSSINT

Ca-releasing activity of ghrelin (1-4) after amidation relative to before amidation	Structure (SMILES)
about 3 times	CCCCCCCC(=O)OC[C@H](NC(=O)[C@H](CO)NC(=O)CN)C(=O)N[C@@H](Cc1ccccc1)C(N)=O [Compound 33-2, Ghrelin (1-4)-amide] (H-GSS(Octanoyl)F-NH2)

Same assay, conditions: CHO-GHSR62 cells (CHO cells expressing rat GHS receptor), FLIPR; read-out: Ca-releasing activity EC50

Structure (SMILES)	EC50 [µM]
CCCCCCCCOC[C@H](NC(=O)CCCCN)C(=O)N[C@@H](Cc1ccccc1)C(=O)N[C@@H](CC(C)C)C(=O)NC [Compound 82, [N-Aminopentanoyl, Ser^3(Octyl)]-Ghrelin (3-5)-methylamide]	0.012
CCCCCCCCOC[C@@H](NC(=O)[C@H](Cc1c[nH]cn1)NC(=O)C(C)(C)N)C(=O)N[C@H](Cc1ccccc1)C(=O)N[C@@H](CCCCN)C(N)=O [Compound 79, [Aib^1, His^2, ^DSer^3(Octyl), ^DPhe^4, Lys^5]-Ghrelin (1-5)-amide] (H-[Aib]H[dS](Octyl)[dF]K-NH2)	0.038
CCCCCCCC(=O)OC[C@H](NC(=O)[C@H](CO)NC(=O)CN)C(=O)N[C@@H](Cc1ccccc1)C(N)=O [Compound 33-2, Ghrelin (1-4)-amide] (H-GSS(Octanoyl)F-NH2)	0.16
CCCCCCCC(=O)OC[C@H](NC(=O)[C@H](CO)NC(=O)CN)C(=O)N[C@@H](Cc1ccccc1)C(=O)N[C@@H](CC(C)C)C(=O)N[C@@H](CO)C(=O)N1CCC[C@H]1C(=O)N[C@@H](CCC(=O)O)C(=O)N[C@@H](Cc1c[nH]cn1)C(=O)O [Compound 26, Ghrelin (1-9)] (H-GSS(Octanoyl)FLSPEH-OH)	0.038
CC(C)CCC(=O)OC[C@H](NC(=O)[C@H](CO)NC(=O)CN)C(=O)N[C@@H](Cc1ccccc1)C(=O)N[C@@H](CC(C)C)C(=O)N[C@@H](CO)C(=O)N1CCC[C@H]1C(=O)N[C@@H](CCC(=O)O)C(=O)N[C@@H](Cc1c[nH]cn1)C(=O)N[C@@H](CCC(N)=O)C(=O)N[C@@H](CCCNC(=N)N)C(=O)N[C@H](C(=O)N[C@@H](CCC(N)=O)C(=O)N[C@@H](CCC(N)=O)C(=O)N[C@@H](CCCNC(=N)N)C(=O)N[C@@H](CCCCN)C(=O)N[C@@H](CCC(=O)O)C(=O)N[C@@H](CO)C(=O)N[C@@H](CCCCN)C(=O)N[C@@H](CCCCN)C(=O)N1CCC[C@H]1C(=O)N1CCC[C@H]1C(=O)N[C@@H](C)C(=O)N[C@@H](CCCCN)C(=O)N[C@@H](CC(C)C)C(=O)N[C@@H](CCC(N)=O)C(=O)N1CCC[C@H]1C(=O)N[C@@H](CCCNC(=N)N)C(=O)O)C(C)C [Compound 69, [Ser^3(4-Methylpentanoyl)]-hGhrelin]	0.0044
CCCCCCCCOC[C@@H](NC(=O)[C@H](CO)NC(=O)CN)C(=O)N[C@@H](Cc1ccccc1)C(=O)N[C@@H](CC(C)C)C(=O)N[C@@H](CO)C(=O)N1CCC[C@H]1C(N)=O [Compound 52, [^DSer^3(Octyl)]-Ghrelin (1-7)-amide]	> 10
CCCCCCCC(=O)NCC(=O)N[C@@H](CO)C(=O)N[C@@H](CO)C(=O)N[C@@H](Cc1ccccc1)C(=O)N[C@@H](CC(C)C)C(=O)N[C@@H](CO)C(=O)N1CCC[C@H]1C(=O)N[C@@H](CCC(=O)O)C(=O)N[C@@H](Cc1c[nH]cn1)C(N)=O [Compound 6, [N-Octanoyl, Ser^3]-Ghrelin (1-9)-amide] (Octanoyl-GSSFLSPEH-NH2)	> 10
CCCCCCCC(=O)OC[C@H](NC(=O)[C@H](CO)NC(=O)CN)C(=O)N[C@@H](Cc1ccccc1)C(=O)N[C@@H](CC(C)C)C(=O)N[C@@H](CO)C(=O)N1CCC[C@H]1C(=O)N[C@@H](CCCCN)C(N)=O [Compound 35, [Lys^8]-Ghrelin (1-8)-amide] (H-GSS(Octanoyl)FLSPK-NH2)	0.0011
CCCCCCCC(=O)OC[C@H](NC(=O)[C@H](CO)NC(=O)CN)C(=O)N[C@@H](Cc1ccccc1)C(=O)N[C@@H](CC(C)C)C(=O)N[C@@H](CO)C(=O)N1CCC[C@H]1C(N)=O [Compound 29, Ghrelin (1-7)-amide]	0.0026
CCCC[C@H](NC(=O)[C@H](CO)NC(=O)CN)C(=O)N[C@@H](Cc1ccccc1)C(=O)N[C@@H](CC(C)C)C(=O)N[C@@H](CO)C(=O)N1CCC[C@H]1C(=O)N[C@@H](CCC(=O)O)C(=O)N[C@@H](Cc1c[nH]cn1)C(=O)N[C@@H](CCC(N)=O)C(=O)N[C@@H](CCCNC(=N)N)C(=O)N[C@H](C(=O)N[C@@H](CCC(N)=O)C(=O)N[C@@H](CCC(N)=O)C(=O)N[C@@H](CCCNC(=N)N)C(=O)N[C@@H](CCCCN)C(=O)N[C@@H](CCC(=O)O)C(=O)N[C@@H](CO)C(=O)N[C@@H](CCCCN)C(=O)N[C@@H](CCCCN)C(=O)N1CCC[C@H]1C(=O)N1CCC[C@H]1C(=O)N[C@@H](C)C(=O)N[C@@H](CCCCN)C(=O)N[C@@H](CC(C)C)C(=O)N[C@@H](CCC(N)=O)C(=O)N1CCC[C@H]1C(=O)N[C@@H](CCCNC(=N)N)C(=O)O)C(C)C [Compound 73, [Nle^3]-hGhrelin]	2.8

Next, values leading:

EC50 [µM]	Structure (SMILES)
0.0014	CCCCCCCSSC[C@H](NC(=O)[C@H](CO)NC(=O)CN)C(=O)N[C@@H](Cc1ccccc1)C(=O)N[C@@H](CC(C)C)C(=O)N[C@@H](CO)C(=O)N1CCC[C@H]1C(=O)N[C@@H](CCC(=O)O)C(=O)N[C@@H](Cc1c[nH]cn1)C(=O)N[C@@H](CCC(N)=O)C(=O)N[C@@H](CCCNC(=N)N)C(=O)N[C@H](C(=O)N[C@@H](CCC(N)=O)C(=O)N[C@@H](CCC(N)=O)C(=O)N[C@@H](CCCNC(=N)N)C(=O)N[C@@H](CCCCN)C(=O)N[C@@H](CCC(=O)O)C(=O)N[C@@H](CO)C(=O)N[C@@H](CCCCN)C(=O)N[C@@H](CCCCN)C(=O)N1CCC[C@H]1C(=O)N1CCC[C@H]1C(=O)N[C@@H](C)C(=O)N[C@@H](CCCCN)C(=O)N[C@@H](CC(C)C)C(=O)N[C@@H](CCC(N)=O)C(=O)N1CCC[C@H]1C(=O)N[C@@H](CCCNC(=N)N)C(=O)O)C(C)C [Compound 57]
0.0015	CCCCCCCC(=O)OC[C@H](NC(=O)[C@H](CO)NC(=O)CN)C(=O)N[C@@H](Cc1ccccc1)C(=O)N[C@@H](CC(C)C)C(=O)N[C@@H](CO)C(=O)N1CCC[C@H]1C(=O)N[C@@H](CCC(=O)O)C(=O)N[C@@H](Cc1c[nH]cn1)C(=O)N[C@@H](CCC(N)=O)C(=O)N[C@@H](CCCCN)C(=O)N[C@@H](C)C(=O)N[C@@H](CCC(N)=O)C(=O)N[C@@H](CCCNC(=N)N)C(=O)N[C@@H](CCCCN)C(=O)N[C@@H](CCC(=O)O)C(=O)N[C@@H](CO)C(=O)N[C@@H](CCCCN)C(=O)N[C@@H](CCCCN)C(=O)N1CCC[C@H]1C(=O)N1CCC[C@H]1C(=O)N[C@@H](C)C(=O)N[C@@H](CCCCN)C(=O)N[C@@H](CC(C)C)C(=O)N[C@@H](CCC(N)=O)C(=O)N1CCC[C@H]1C(=O)N[C@@H](CCCNC(=N)N)C(=O)O [Compound 22, [des Gln^14]-rGhrerin] (H-GSS(Octanoyl)FLSPEHQKAQRKESKKPPAKLQPR-OH; N-terminus and C-terminus assumed)
0.034	CCCCCCCCOC[C@H](NC(=O)[C@H](Cc1c[nH]cn1)NC(=O)C(C)(C)N)C(=O)N[C@@H](Cc1ccccc1)C(=O)N[C@@H](CCCCN)C(N)=O [Compound 78, [Aib^1, His^2, Ser^3(Octyl), Lys^5]-Ghrelin (1-5)-amide] (H-[Aib]HS(Octyl)FK-NH2)
> 10	CCCCCCCC(=O)OC[C@H](NC(=O)[C@H](CO)NC(=O)CNC(C)=O)C(=O)N[C@@H](Cc1ccccc1)C(=O)N[C@@H](CC(C)C)C(=O)N[C@@H](CO)C(=O)N1CCC[C@H]1C(=O)N[C@@H](CCC(=O)O)C(=O)N[C@@H](Cc1c[nH]cn1)C(=O)N[C@@H](CCC(N)=O)C(=O)O [Compound 41, [N-Acetyl]-Ghrelin (1-10)]

Same assay, conditions: CHO-GHSR62 cells; listed as Ghrelin-27

Structure (SMILES)	Ca-releasing activity (in words)
CCCCCCCC(=O)OC[C@H](NC(=O)[C@H](CO)NC(=O)CN)C(=O)N[C@@H](Cc1ccccc1)C(=O)N[C@@H](CC(C)C)C(=O)N[C@@H](CO)C(=O)N1CCC[C@H]1C(=O)N[C@@H](CCC(=O)O)C(=O)N[C@@H](Cc1c[nH]cn1)C(=O)N[C@@H](CCC(N)=O)C(=O)N[C@@H](CCCCN)C(=O)N[C@@H](C)C(=O)N[C@@H](CCC(N)=O)C(=O)N[C@@H](CCCNC(=N)N)C(=O)N[C@@H](CCCCN)C(=O)N[C@@H](CCC(=O)O)C(=O)N[C@@H](CO)C(=O)N[C@@H](CCCCN)C(=O)N[C@@H](CCCCN)C(=O)N1CCC[C@H]1C(=O)N1CCC[C@H]1C(=O)N[C@@H](C)C(=O)N[C@@H](CCCCN)C(=O)N[C@@H](CC(C)C)C(=O)N[C@@H](CCC(N)=O)C(=O)N1CCC[C@H]1C(=O)N[C@@H](CCCNC(=N)N)C(=O)O [Compound 22, [des Gln^14]-rGhrerin] (H-GSS(Octanoyl)FLSPEHQKAQRKESKKPPAKLQPR-OH; N-terminus and C-terminus assumed)	completely the same Ca-releasing activity

Same assay, conditions: Table 3, Example 9: protease fragments or synthetic peptides; CHO-GHSR62 cells; read-out: Ca-releasing activity (EC50)

EC50 [µM]	Structure (SMILES)
0.015	CCCCCCCC(=O)OC[C@H](NC(=O)[C@H](CO)NC(=O)CN)C(=O)N[C@@H](Cc1ccccc1)C(=O)N[C@@H](CC(C)C)C(=O)N[C@@H](CO)C(=O)N1CCC[C@H]1C(=O)N[C@@H](CCC(=O)O)C(=O)N[C@@H](Cc1c[nH]cn1)C(=O)N[C@@H](CCC(N)=O)C(=O)N[C@@H](CCCNC(=N)N)C(=O)O [Compound 23, hGhrelin (1-11)]
